PubChem BioAssay AID248 (DTP/NCI, 2004)
Several values for one entry are separate records, joined by “and”; a condition that tells them apart may be missing. Identical values can stand only once. Toxic doses and inconclusive results are not listed.

Tested on: L1210 leukemia ip in BDF1 mice, survival T/C
Assay: NCI In Vivo Anticancer Drug Screen. Data for tumor model L1210 Leukemia (intraperitoneal) in B6D2F1 (BDF1) mice
Details: higher = longer survival
In short: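 Tumor cells were implanted, animals were treated, and survival was followed. The result divides the treated measurement by the vehicle-control measurement.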

[1] = endpoint: mean survival time, dose: 50.0 mg/kg/injection, schedule: Q01DX009 (ip), vehicle: saline
[2] = endpoint: mean survival time, dose: 100.0 mg/kg/injection, schedule: Q01DX009 (ip), vehicle: saline
[3] = endpoint: mean survival time, dose: 100.0 mg/kg/injection, schedule: Q04DX003 (ip), vehicle: saline
[4] = endpoint: mean survival time, dose: 200.0 mg/kg/injection, schedule: Q01DX009 (ip), vehicle: saline
[5] = endpoint: mean survival time, dose: 200.0 mg/kg/injection, schedule: Q04DX003 (ip), vehicle: saline
[6] = endpoint: mean survival time, dose: 100.0 mg/kg/injection, schedule: Q04DX002 (ip), vehicle: Klucel (hydroxypropylcellulose) (HPC)
[7] = endpoint: mean survival time, dose: 200.0 mg/kg/injection, schedule: Q04DX002 (ip), vehicle: Klucel (hydroxypropylcellulose) (HPC)
[8] = endpoint: mean survival time, dose: 400.0 mg/kg/injection, schedule: Q04DX002 (ip), vehicle: Klucel (hydroxypropylcellulose) (HPC)
[9] = endpoint: mean survival time, dose: 50.0 mg/kg/injection, schedule: Q04DX002 (ip), vehicle: Klucel (hydroxypropylcellulose) (HPC)
[10] = endpoint: mean survival time, dose: 100.0 mg/kg/injection, schedule: Q01DX009 (ip), vehicle: Klucel (hydroxypropylcellulose) (HPC)
[11] = endpoint: mean survival time, dose: 200.0 mg/kg/injection, schedule: Q01DX009 (ip), vehicle: Klucel (hydroxypropylcellulose) (HPC)

N/C(=N\O)c1cn(C2OC(CO)C(O)C2O)c2ncnc(N)c12 (stereo unspecified)
T/C (endpoint: mean survival time, dose: 0.2 mg/kg/injection, schedule: Q01DX015 (ip), vehicle: carboxymethylcellulose (CMC)): 104 % of control
T/C (endpoint: mean survival time, dose: 0.25 mg/kg/injection, schedule: Q01DX009 (ip), vehicle: saline): 117 % of control
T/C (endpoint: mean survival time, dose: 0.25 mg/kg/injection, schedule: Q03HX024 (ip), vehicle: saline): 123 % of control
T/C (endpoint: mean survival time, dose: 0.3 mg/kg/injection, schedule: Q01DX015 (ip), vehicle: carboxymethylcellulose (CMC)): 117 % of control
T/C (endpoint: mean survival time, dose: 0.39 mg/kg/injection, schedule: Q01DX009 (ip), vehicle: saline): 150 % of control
T/C (endpoint: mean survival time, dose: 0.44 mg/kg/injection, schedule: Q01DX015 (ip), vehicle: carboxymethylcellulose (CMC)): 117 % of control
T/C (endpoint: mean survival time, dose: 0.5 mg/kg/injection, schedule: Q01DX005 (ip), vehicle: saline): 118 % of control
T/C (endpoint: mean survival time, dose: 0.67 mg/kg/injection, schedule: Q01DX015 (ip), vehicle: carboxymethylcellulose (CMC)): 120 % of control
T/C (endpoint: mean survival time, dose: 0.78 mg/kg/injection, schedule: Q01DX005 (ip), vehicle: saline): 111 % of control
T/C (endpoint: mean survival time, dose: 0.78 mg/kg/injection, schedule: Q01DX009 (ip), vehicle: saline): 150 % of control
T/C (endpoint: mean survival time, dose: 1.0 mg/kg/injection, schedule: Q03HX008 (ip), vehicle: saline): 160 % of control
T/C (endpoint: mean survival time, dose: 1.0 mg/kg/injection, schedule: Q03HX024 (ip), vehicle: saline): 192 % of control
T/C (endpoint: mean survival time, dose: 1.3 mg/kg/injection, schedule: Q01DX009 (ip), vehicle: saline): 159 % of control
T/C (endpoint: mean survival time, dose: 1.56 mg/kg/injection, schedule: Q01DX005 (ip), vehicle: saline): 110 % of control
T/C (endpoint: mean survival time, dose: 1.56 mg/kg/injection, schedule: Q01DX009 (ip), vehicle: saline): 204 % of control
T/C (endpoint: mean survival time, dose: 2.0 mg/kg/injection, schedule: Q01DX009 (ip), vehicle: saline): 158 % of control
T/C (endpoint: mean survival time, dose: 2.0 mg/kg/injection, schedule: Q03HX024 (ip), vehicle: saline): 102 % of control and 107 % of control
T/C (endpoint: mean survival time, dose: 3.0 mg/kg/injection, schedule: Q01DX009 (ip), vehicle: saline): 151 % of control
T/C (endpoint: mean survival time, dose: 3.12 mg/kg/injection, schedule: Q01DX001 (ip), vehicle: other): 121 % of control
T/C (endpoint: mean survival time, dose: 3.12 mg/kg/injection, schedule: Q01DX005 (ip), vehicle: saline): 156 % of control
T/C (endpoint: mean survival time, dose: 3.12 mg/kg/injection, schedule: Q01DX009 (ip), vehicle: saline): 109 % of control
T/C (endpoint: mean survival time, dose: 3.13 mg/kg/injection, schedule: Q01DX001 (ip), vehicle: water): 121 % of control
T/C (endpoint: mean survival time, dose: 4.0 mg/kg/injection, schedule: Q01DX001 (ip), vehicle: saline): 117 % of control
T/C (endpoint: mean survival time, dose: 4.0 mg/kg/injection, schedule: Q01DX005 (ip), vehicle: saline): 152 % of control
T/C (endpoint: mean survival time, dose: 4.0 mg/kg/injection, schedule: Q01DX009 (ip), vehicle: saline): 153 % of control and 180 % of control
T/C (endpoint: mean survival time, dose: 4.0 mg/kg/injection, schedule: Q01DX009 (oral), vehicle: saline): 96 % of control
T/C (endpoint: mean survival time, dose: 4.0 mg/kg/injection, schedule: Q08DX002 (ip), vehicle: saline): 122 % of control
T/C (endpoint: mean survival time, dose: 4.4 mg/kg/injection, schedule: Q01DX001 (ip), vehicle: carboxymethylcellulose (CMC)): 124 % of control
T/C (endpoint: mean survival time, dose: 5.0 mg/kg/injection, schedule: Q01DX001 (ip), vehicle: carboxymethylcellulose (CMC)): 124 % of control
T/C (endpoint: mean survival time, dose: 5.0 mg/kg/injection, schedule: Q01DX009 (ip), vehicle: saline): 158 % of control
T/C (endpoint: mean survival time, dose: 5.0 mg/kg/injection, schedule: Q01DX015 (ip), vehicle: carboxymethylcellulose (CMC)): 108 % of control
T/C (endpoint: mean survival time, dose: 6.25 mg/kg/injection, schedule: Q01DX001 (ip), vehicle: other): 122 % of control
T/C (endpoint: mean survival time, dose: 6.25 mg/kg/injection, schedule: Q01DX001 (ip), vehicle: water): 114 % of control
T/C (endpoint: mean survival time, dose: 6.25 mg/kg/injection, schedule: Q01DX009 (ip), vehicle: saline): 113 % of control
T/C (endpoint: mean survival time, dose: 8.0 mg/kg/injection, schedule: Q01DX001 (ip), vehicle: saline): 124 % of control
T/C (endpoint: mean survival time, dose: 8.0 mg/kg/injection, schedule: Q01DX005 (ip), vehicle: saline): 150 % of control
T/C (endpoint: mean survival time, dose: 8.0 mg/kg/injection, schedule: Q01DX009 (ip), vehicle: saline): 119 % of control and 121 % of control
T/C (endpoint: mean survival time, dose: 8.0 mg/kg/injection, schedule: Q01DX009 (oral), vehicle: saline): 95 % of control
T/C (endpoint: mean survival time, dose: 8.0 mg/kg/injection, schedule: Q04DX003 (ip), vehicle: saline): 151 % of control and 156 % of control
T/C (endpoint: mean survival time, dose: 16.0 mg/kg/injection, schedule: Q01DX001 (ip), vehicle: saline): 119 % of control
T/C (endpoint: mean survival time, dose: 16.0 mg/kg/injection, schedule: Q01DX001 (oral), vehicle: saline): 94 % of control
T/C (endpoint: mean survival time, dose: 16.0 mg/kg/injection, schedule: Q01DX009 (oral), vehicle: saline): 95 % of control
T/C (endpoint: mean survival time, dose: 16.0 mg/kg/injection, schedule: Q04DX003 (ip), vehicle: saline): 186 % of control
T/C (endpoint: mean survival time, dose: 22.5 mg/kg/injection, schedule: Q01DX001 (ip), vehicle: saline): 151 % of control
T/C (endpoint: mean survival time, dose: 25.0 mg/kg/injection, schedule: Q01DX001 (ip), vehicle: other): 157 % of control
T/C (endpoint: mean survival time, dose: 25.0 mg/kg/injection, schedule: Q01DX001 (ip), vehicle: water): 152 % of control
T/C (endpoint: mean survival time, dose: 32.0 mg/kg/injection, schedule: Q01DX001 (oral), vehicle: saline): 97 % of control
T/C (endpoint: mean survival time, dose: 32.0 mg/kg/injection, schedule: Q01DX009 (oral), vehicle: saline): 94 % of control
T/C (endpoint: mean survival time, dose: 32.0 mg/kg/injection, schedule: Q08DX002 (ip), vehicle: saline): 154 % of control
T/C (endpoint: mean survival time, dose: 50.0 mg/kg/injection, schedule: Q01DX001 (ip), vehicle: other): 150 % of control
T/C (endpoint: mean survival time, dose: 50.0 mg/kg/injection, schedule: Q01DX001 (ip), vehicle: water): 159 % of control
T/C (endpoint: mean survival time, dose: 64.0 mg/kg/injection, schedule: Q01DX001 (oral), vehicle: saline): 94 % of control
T/C (endpoint: mean survival time, dose: 128.0 mg/kg/injection, schedule: Q01DX001 (oral), vehicle: saline): 90 % of control
T/C (endpoint: median survival time, dose: 0.5 mg/kg/injection, schedule: Q01DX009 (ip), vehicle: saline): 118 % of control and 122 % of control
T/C (endpoint: median survival time, dose: 1.0 mg/kg/injection, schedule: Q01DX009 (ip), vehicle: saline): 122 % of control

O=C1OC(=O)C(Br)=C1Br
T/C (endpoint: mean survival time, dose: 25.0 mg/kg/injection, schedule: Q04DX002 (ip), vehicle: saline): 101 % of control
T/C [1]: 94 % of control
T/C (endpoint: mean survival time, dose: 50.0 mg/kg/injection, schedule: Q04DX002 (ip), vehicle: saline): 97 % of control
T/C [2]: 91 % of control
T/C (endpoint: mean survival time, dose: 100.0 mg/kg/injection, schedule: Q04DX002 (ip), vehicle: saline): 97 % of control
T/C [3]: 95 % of control
T/C [4]: 107 % of control
T/C (endpoint: mean survival time, dose: 200.0 mg/kg/injection, schedule: Q04DX002 (ip), vehicle: saline): 93 % of control and 103 % of control
T/C [5]: 98 % of control

CC(=O)NC1CCC(C(C)(C)C)CC1 (stereo unspecified)
T/C (endpoint: mean survival time, dose: 100.0 mg/kg/injection, schedule: Q01DX009 (ip), vehicle: saline with Tween-80): 102 % of control
T/C [6]: 93 % of control
T/C (endpoint: mean survival time, dose: 200.0 mg/kg/injection, schedule: Q01DX009 (ip), vehicle: saline with Tween-80): 108 % of control
T/C [7]: 90 % of control
T/C [8]: 103 % of control

CCOP(=O)(CCP(=O)(CCP(=O)(OCC)OCC)CCP(=O)(OCC)OCC)OCC
T/C [1]: 94 % of control
T/C (endpoint: mean survival time, dose: 50.0 mg/kg/injection, schedule: Q04DX003 (ip), vehicle: saline): 103 % of control
T/C [2]: 94 % of control
T/C [3]: 103 % of control
T/C [4]: 98 % of control
T/C [5]: 101 % of control
T/C (endpoint: mean survival time, dose: 400.0 mg/kg/injection, schedule: Q04DX003 (ip), vehicle: saline): 98 % of control

O=Cc1c(O)ccc2ccccc12
T/C [6]: 90 % of control
T/C [7]: 93 % of control
T/C [8]: 96 % of control

CN=C(N)C(C)SS(=O)(=O)O (stereo unspecified)
T/C (endpoint: mean survival time, dose: 50.0 mg/kg/injection, schedule: Q01DX009 (ip), vehicle: Klucel (hydroxypropylcellulose) (HPC)): 101 % of control
T/C [9]: 106 % of control
T/C [10]: 107 % of control
T/C [6]: 92 % of control
T/C [11]: 104 % of control
T/C [7]: 89 % of control and 91 % of control

O=S1(=O)CC2(N3CCCC3)C3c4ccccc4C(c4ccccc43)C21 (stereo unspecified)
T/C (endpoint: mean survival time, dose: 25.0 mg/kg/injection, schedule: Q04DX002 (ip), vehicle: Klucel (hydroxypropylcellulose) (HPC)): 102 % of control
T/C [9]: 102 % of control
T/C [6]: 117 % of control

Cc1cccc(C)c1NC(=S)N(CCC#N)C(C)C
T/C [10]: 103 % of control
T/C [11]: 106 % of control
T/C (endpoint: mean survival time, dose: 400.0 mg/kg/injection, schedule: Q01DX009 (ip), vehicle: Klucel (hydroxypropylcellulose) (HPC)): 96 % of control
